Results as given in ChEMBL document CHEMBL1201862, “PubChem BioAssay data set” (2004).
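Five compound concentrations were applied to cells in 96-well plates for 48 hours; endpoints were derived by simple linear interpolation of the resulting dose-response curve. The concentration for 50% growth inhibition is given as GI50.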 Calls of active or inactive are those of the source. Cut-off read from the data, not from the text of the source: active = GI50 up to about 1.1 µM and inactive = higher.

How the values were obtained:
Experiment in all cases: NCI anticancer screen, dose series, 48 h
[1] = system: ACHN
[2] = system: CCRF-CEM
[3] = system: COLO 205
[4] = system: HCT-15
[5] = system: HL-60
[6] = system: HT-29
[7] = system: KM12
[8] = system: MCF7
[9] = system: MDA-MB-435
[10] = system: MOLT-4
[11] = system: NCI-H460
[12] = system: NCI-H522
[13] = system: NCI/ADR-RES
[14] = system: OVCAR-3
[15] = system: OVCAR-4
[16] = system: OVCAR-5
[17] = system: RXF 393
[18] = system: SK-MEL-28
[19] = system: SW-620
[20] = system: RPMI-8226

SMILES | GI50 [1] | GI50 [2] | GI50 [3] | GI50 [4] [µM] | GI50 [5] | GI50 [6] | GI50 [7] | GI50 [8] | GI50 [9] | GI50 [10] | GI50 [11] | GI50 [12] | GI50 [13] | GI50 [14] | GI50 [15] | GI50 [16] | GI50 [17] | GI50 [18] | GI50 [19] | GI50 [20]
Cc1ccc(-c2n[nH]c(CC#N)n2)cc1 | > 100 µM (inactive) | > 100 µM (inactive) | > 100 µM (inactive) | 66.1 | > 100 µM (inactive) | > 100 µM (inactive) | > 100 µM (inactive) | > 100 µM (inactive) | > 100 µM (inactive) | > 100 µM (inactive) | > 100 µM (inactive) | > 100 µM (inactive) | > 100 µM (inactive) | > 100 µM (inactive) | > 100 µM (inactive) | > 100 µM (inactive) | > 100 µM (inactive) | > 100 µM (inactive) | > 100 µM (inactive) | 
C#CCn1c(=O)c(C)cn(/C(=C\C(=O)OCC)C(=O)OCC)c1=O | 1.69 µM (inactive) | 0.435 µM (active) | 1.17 µM (inactive) | 1.58 | 1.35 µM (inactive) | 1.72 µM (inactive) | 30.1 µM (inactive) | 2.72 µM (inactive) | 5.16 µM (inactive) | 2.65 µM (inactive) | 2.2 µM (inactive) |  | 3.86 µM (inactive) | 6.17 µM (inactive) | 2.69 µM (inactive) | 7.06 µM (inactive) | 1.95 µM (inactive) | 2.03 µM (inactive) | 1.67 µM (inactive) | 2.8 µM (inactive)
O=[PH]1c2ccccc2Nc2ccccc21 | > 100 µM (inactive) | > 100 µM (inactive) | > 100 µM (inactive) | 37.1 | 75.7 µM (inactive) | 51.6 µM (inactive) | > 100 µM (inactive) | > 100 µM (inactive) | > 100 µM (inactive) | 26.2 µM (inactive) | 53.5 µM (inactive) | 74.3 µM (inactive) | > 100 µM (inactive) | 52.6 µM (inactive) | 64.7 µM (inactive) | > 100 µM (inactive) | > 100 µM (inactive) | > 100 µM (inactive) | 63.7 µM (inactive) | 
CCN(CC)C1=Nc2ccccc2-n2ccnc2C1 | > 100 µM (inactive) | > 100 µM (inactive) | > 100 µM (inactive) | > 100 | 78.2 µM (inactive) | > 100 µM (inactive) | > 100 µM (inactive) | > 100 µM (inactive) | > 100 µM (inactive) | > 100 µM (inactive) | 95.1 µM (inactive) | > 100 µM (inactive) | > 100 µM (inactive) | > 100 µM (inactive) | > 100 µM (inactive) | > 100 µM (inactive) | > 100 µM (inactive) | > 100 µM (inactive) | > 100 µM (inactive) | 
Cc1nc2c(c(N3CCN(C)CC3)n1)Cc1ccccc1-2 | 34.2 µM (inactive) | 65.2 µM (inactive) | 37.3 µM (inactive) | 32.5 | 42.1 µM (inactive) | 44.1 µM (inactive) | 48 µM (inactive) | 70.3 µM (inactive) | 64.7 µM (inactive) | > 10 µM (inactive) | 18.8 µM (inactive) | 16.9 µM (inactive) | 49.5 µM (inactive) |  |  | 80.7 µM (inactive) | > 100 µM (inactive) |  | 31 µM (inactive) | > 100 µM (inactive)
C[C@@H]1O[C@@H](O[C@H]2CC[C@]3(C=O)[C@H]4CC[C@]5(C)[C@@H](c6ccc(=O)oc6)CC[C@]5(O)[C@@H]4CC[C@]3(O)C2)[C@H](O)[C@H](O)[C@H]1O[C@@H]1O[C@H](CO)[C@@H](O)[C@H](O)[C@H]1O [HELLEBRIN] | 0.00423 µM (active) | 0.00445 µM (active) | 0.0271 µM (active) | 0.0375 | 0.00615 µM (active) | 0.0212 µM (active) | 0.0521 µM (active) | 0.0375 µM (active) | 0.0107 µM (active) | 0.00302 µM (active) | 0.00771 µM (active) | 0.00324 µM (active) | 0.0152 µM (active) | 0.00408 µM (active) | 0.00743 µM (active) | 0.00989 µM (active) |  | 0.0375 µM (active) | 0.0375 µM (active) | 0.0375 µM (active)
